Experimental data reported in paper PMC9672079, “Micro-PET imaging of hepatitis C virus NS3/4A protease activity using a protease-activatable retention probe” (Frontiers in Microbiology, 2022).

How the values were obtained:
[1] = tested on: NS3/4A-HCC36 cells; test: Retention of TAT-ΔNS3/4A-FITC in cells, fluorescence microscopy; format: cell-based, Human; settings: fluorescence microscope
Procedure: (§1) HCC36 or NS3/4A-HCC36 cells (1 × 10^5) were seeded with DMEM containing 10% serum in a 24-well plate at 37°C in a CO2 incubator overnight. The cells were incubated with 10 μM of TAT-ΔNS3/4A-FITC in the presence or absence of 2 μM telaprevir (purchased from Legend Star International, Taiwan) at 37°C for 1 h. After probe staining, the cells were washed using DMEM containing 10% serum per 20 min until the end of the experiment. After 8 h washing, the fluorescence of viable cells was observed under a fluorescence microscope at the indicated times (Axiovert 200, Carl Zeiss MicroImaging, GmbH, Germany).
(§2) FIGURE 2 Specific retention of TAT-ΔNS3/4A-FITC in NS3/4A-HCC36- and HCV-infected cells. HCC36 cells, NS3/4A-HCC36 cells, or JFH-1-infected HCC36 cells were incubated with 10 μM TAT-ΔNS3/4A-FITC in the absence or presence of 2 μM telaprevir (NS3/4A protease inhibitor) at 37°C for 1 h. The cells were washed with DMEM containing 10% serum three times per hour. After culturing for 1 or 8 h, the phase contrast and fluorescence of viable cells were observed under a fluorescence microscope. Scale bar: 100 μm.

[2] = tested on: HEK293 cells; settings: HEK293, 0.1–2,000 ug/ml, 72 h, cell viability by cellular ATP synthesis, compared with CPT-11
Procedure: HEK293 cells were incubated with different concentrations (0.1–2,000 ug/ml) of TAT-ΔNS3/4A-FITC or CPT-11. […] CPT-11: irinotecan hydrochloride.

[3] = tested on: NS3/4A-HCC36 cells; test: Specific retention of probe via flow cytometry; format: cell-based, Human
Procedure: (§3) We also used the WT probe (GRKKRRQRRR-[…]-LKKKYK-FITC) and the scrambled sequence probe (GRKKRRQRRR-[…]-LKKKYK) that could not be activated by protease as a control group to test the specific retention of probe via flow cytometry. HCC36 cells, NS3/4A-HCC36 cells, or JFH-1-infected HCC36 cells were incubated with 10 μM TAT-ΔNS3/4A-FITC or 10 μM TAT-scrambled NS3/4A-FITC in the absence or presence of 2 μM telaprevir (NS3/4A protease inhibitor) at 37 °C for 1 h. The cells were washed with DMEM containing 10% serum three times per hour. After culturing for 1 or 8 h, the fluorescence of viable cells was observed via flow cytometry.
(§4) Supplementary file Image_5.TIF: Supplementary Figure 5 To evaluate the specific retention of probe via flow cytometry, we used the WT probe (GRKKRRQRRR-[…]-LKKKYK-FITC) and the scrambled sequence probe (GRKKRRQRRR-[…]-LKKKYK) that could not be activated by protease as a control group to test the specific retention of probe via flow cytometry. HCC36 cells, NS3/4A-HCC36 cells, or JFH-1-infected HCC36 cells were incubated with 10 μM TAT-ΔNS3/4A-FITC or 10 μM TAT-scrambled NS3/4A-FITC in the absence or presence of 2 μM telaprevir (NS3/4A protease inhibitor) at 37°C for 1 h. The cells were washed with DMEM containing 10% serum three times per hour. After culturing for 1 or 8 h, the fluorescence of viable cells was observed via flow cytometry. Click here for additional data file.

[4] = tested on: JFH-1-infected HCC36 cells; test: Specific retention of probe via flow cytometry; format: cell-based, Human
Procedure: as §3, §4

[5] = tested on: HCC36 cells; test: Specific retention of probe via flow cytometry; format: cell-based, Human; settings: control HCC36 cells
Procedure: as §3, §4

[6] = tested on: JFH-1-infected HCC36 cells; test: Retention of TAT-ΔNS3/4A-FITC in HCV-infected cells, fluorescence microscopy; format: cell-based, Human; settings: fluorescence microscope
Procedure: Infectious HCV particles were generated as previously described ([Hayashi et al., 2014]). HCC36 cells (1 × 10^5) were seeded in DMEM containing 10% serum in a 24-well plate at 37°C in a CO2 incubator overnight. The cells were infected with JFH-1 and incubated with or without 2 μM telaprevir. After 5 days, the parental HCC36 and JFH-1-infected cells were stained with 10 μM of TAT-ΔNS3/4A-FITCat 37 °C for 1 h. After probe staining, the cells were washed using DMEM containing 10% serum per 20 min until the end of the experiment. After 8 h washing, the fluorescence of viable cells was observed under a fluorescence microscope at the indicated times (Axiovert 200, Carl Zeiss MicroImaging, GmbH, Germany).
as §2

[7] = tested on: HCC36 cells; test: Retention of TAT-ΔNS3/4A-FITC in control cells, fluorescence microscopy; format: cell-based, Human; settings: fluorescence microscope
Procedure: as §1
Infectious HCV particles were generated as previously described ([Hayashi et al., 2014]). HCC36 cells (1 × 10^5) were seeded in DMEM containing 10% serum in a 24-well plate at 37°C in a CO2 incubator overnight. The cells were infected with JFH-1 and incubated with or without 2 μM telaprevir. After 5 days, the parental HCC36 and JFH-1-infected cells were stained with 10 μM of TAT-ΔNS3/4A-FITCat 37 °C for 1 h. […] After 8 h washing, the fluorescence of viable cells was observed under a fluorescence microscope at the indicated times (Axiovert 200, Carl Zeiss MicroImaging, GmbH, Germany).
FIGURE 2 Specific retention of TAT-ΔNS3/4A-FITC in NS3/4A-HCC36- and HCV-infected cells. […] After culturing for 1 or 8 h, the phase contrast and fluorescence of viable cells were observed under a fluorescence microscope. […]

[8] = tested on: NS3/4A-HCC36 and HCC36 tumors; test: Histological analysis of FITC fluorescence in tumor sections after i.v. probe; format: in vivo, BALB/c nude mice; settings: i.v. 500 μM (in 100 μL), 4 h after injection, frozen sections, n = 3 mice
Procedure: BALB/c nude mice (n = 3) bearing established HCC36 and NS3/4A-HCC36 (100–200 mm^3) tumors in their right and left hind legs, respectively, were intravenously injected with 500 μM (in 100 μL) TAT-ΔNS3/4A-FITC and sacrificed 4 h later. Tumors were excised and embedded in OCT compound (Tissue-Tek, CA) in liquid nitrogen. The adjacent tumor sections either directly detect the FITC-fluorescent intensity to observe the accumulation of TAT-ΔNS3/4A-FITC probe or stained with a 520 HCV protease Assay Kit (AnaSpec) to visualize NS3/4A activity. The sections were examined on an upright BX4 microscope (Olympus, Melville, NY, USA) or viewed under phase contrast or fluorescence fields on an inverted Axiovert 200 microscope (Carl Zeiss Microimaging, Thornwood, NY, USA).
FIGURE 3 Specific retention of TAT-ΔNS3/4A-FITC in NS3/4A-expressing tumors in vivo. Mice bearing established NS3/4A-HCC36 and HCC36 tumors were injected with 500 μM TAT-NS3/4A-FITC and sacrificed after 4 h. Sections of NS3/4A-HCC36 (upper panels) and HCC36 (lower panels) tumors were stained with 520 HCV protease Assay Kit (AnaSpec) to detect NS3/4A activity in tumor sections. FITC-derived fluorescence (green) and NS3/4A activity (red) were observed under a fluorescence microscope. Scale bar: 1 mm.

[9] = 10 μM probe + 2 μM telaprevir, 8 h
[10] = 10 μM probe, 37°C, 1 h staining
[11] = 10 μM probe 1 h, washed three times per hour, 8 h
[12] = 10 μM probe 1 h, washed every 20 min, 8 h

GRKKRRQRRR-DEDEDEDEMEECASH-LKKKYK-FITC [TAT-ΔNS3/4A-FITC, cell-penetrating Tat peptide, HCV NS3/4A protease substrate and hydrophilic domain (KKKYK), labeled by FITC]
fluorescence retention after culturing for 8 h ([1]; 10 μM probe 1 h, washed with DMEM 10% serum every 20 min, 8 h): strong fluorescence only accumulated in NS3/4A-HCC36 cells
fluorescence retention after 8 h in presence of NS3/4A inhibitor [1, 9]: did not accumulate
fluorescence accumulation after probe staining [1, 10]: strong fluorescence accumulated in each cell
in vitro toxicity, growth of HEK293 [2]: could not inhibit the growth of HEK293
fluorescence retention after culturing for 8 h [3, 11]: strong fluorescence of WT probe only accumulated in NS3/4A-HCC36 cells
fluorescence retention after 8 h in presence of telaprevir [3, 9]: could block via the 2 μM telaprevir
fluorescence after 1 h probe staining ([3]; 10 μM probe, 37°C, 1 h): strong fluorescence of WT probe accumulated in each cell
fluorescence retention after culturing for 8 h [4, 11]: strong fluorescence of WT probe only accumulated in NS3/4A-HCC36 cells and HCV-infected HCC36 cells
fluorescence retention after 8 h in presence of telaprevir [4, 9]: could block via the 2 μM telaprevir
fluorescence after 1 h probe staining ([4]; 10 μM probe, 37°C, 1 h): strong fluorescence of WT probe accumulated in each cell
fluorescence retention after culturing for 8 h [5, 11]: not in control HCC36 cells
fluorescence after 1 h probe staining ([5]; 10 μM probe, 37°C, 1 h): strong fluorescence of WT probe accumulated in each cell
fluorescence retention after culturing for 8 h [6, 12]: strong fluorescence only accumulated in NS3/4A-HCC36 cells and HCV-infected HCC36 cells
fluorescence retention after 8 h in presence of NS3/4A inhibitor [6, 9]: did not accumulate
fluorescence accumulation after probe staining [6, 10]: strong fluorescence accumulated in each cell
fluorescence retention after culturing for 8 h [7, 12]: not in control HCC36 cells
fluorescence accumulation after probe staining [7, 10]: strong fluorescence accumulated in each cell
FITC-derived fluorescence in NS3/4A-HCC36 tumor sections [8]: accumulated in the NS3/4A-HCC3 tumors
